Reference: ChEMBL document CHEMBL1201862, “PubChem BioAssay data set” (2004)
Calls of active or inactive are those of the source.

Assays:
[1] = HIV-1 Vif–A3G interaction blockers – biochemical, TR-FRET, GST-Vif 1-94, biotin-A3G peptide, dose response retest, primary screen (AID 1117319); format: functional;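 also: TR-FRET signal of purified GST-Vif binding a biotinylated A3G peptide; inhibitors lower the FRET signal by blocking Vif and A3G binding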
[2] = molecular target: Voltage-dependent T-type calcium channel subunit alpha-1H (Homo sapiens, UniProt O95180); format: functional;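 also: channel activity triggered by adding a high calcium stimulation buffer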
Chain of Voltage-dependent T-type calcium channel subunit alpha-1H (O95180 whole entry): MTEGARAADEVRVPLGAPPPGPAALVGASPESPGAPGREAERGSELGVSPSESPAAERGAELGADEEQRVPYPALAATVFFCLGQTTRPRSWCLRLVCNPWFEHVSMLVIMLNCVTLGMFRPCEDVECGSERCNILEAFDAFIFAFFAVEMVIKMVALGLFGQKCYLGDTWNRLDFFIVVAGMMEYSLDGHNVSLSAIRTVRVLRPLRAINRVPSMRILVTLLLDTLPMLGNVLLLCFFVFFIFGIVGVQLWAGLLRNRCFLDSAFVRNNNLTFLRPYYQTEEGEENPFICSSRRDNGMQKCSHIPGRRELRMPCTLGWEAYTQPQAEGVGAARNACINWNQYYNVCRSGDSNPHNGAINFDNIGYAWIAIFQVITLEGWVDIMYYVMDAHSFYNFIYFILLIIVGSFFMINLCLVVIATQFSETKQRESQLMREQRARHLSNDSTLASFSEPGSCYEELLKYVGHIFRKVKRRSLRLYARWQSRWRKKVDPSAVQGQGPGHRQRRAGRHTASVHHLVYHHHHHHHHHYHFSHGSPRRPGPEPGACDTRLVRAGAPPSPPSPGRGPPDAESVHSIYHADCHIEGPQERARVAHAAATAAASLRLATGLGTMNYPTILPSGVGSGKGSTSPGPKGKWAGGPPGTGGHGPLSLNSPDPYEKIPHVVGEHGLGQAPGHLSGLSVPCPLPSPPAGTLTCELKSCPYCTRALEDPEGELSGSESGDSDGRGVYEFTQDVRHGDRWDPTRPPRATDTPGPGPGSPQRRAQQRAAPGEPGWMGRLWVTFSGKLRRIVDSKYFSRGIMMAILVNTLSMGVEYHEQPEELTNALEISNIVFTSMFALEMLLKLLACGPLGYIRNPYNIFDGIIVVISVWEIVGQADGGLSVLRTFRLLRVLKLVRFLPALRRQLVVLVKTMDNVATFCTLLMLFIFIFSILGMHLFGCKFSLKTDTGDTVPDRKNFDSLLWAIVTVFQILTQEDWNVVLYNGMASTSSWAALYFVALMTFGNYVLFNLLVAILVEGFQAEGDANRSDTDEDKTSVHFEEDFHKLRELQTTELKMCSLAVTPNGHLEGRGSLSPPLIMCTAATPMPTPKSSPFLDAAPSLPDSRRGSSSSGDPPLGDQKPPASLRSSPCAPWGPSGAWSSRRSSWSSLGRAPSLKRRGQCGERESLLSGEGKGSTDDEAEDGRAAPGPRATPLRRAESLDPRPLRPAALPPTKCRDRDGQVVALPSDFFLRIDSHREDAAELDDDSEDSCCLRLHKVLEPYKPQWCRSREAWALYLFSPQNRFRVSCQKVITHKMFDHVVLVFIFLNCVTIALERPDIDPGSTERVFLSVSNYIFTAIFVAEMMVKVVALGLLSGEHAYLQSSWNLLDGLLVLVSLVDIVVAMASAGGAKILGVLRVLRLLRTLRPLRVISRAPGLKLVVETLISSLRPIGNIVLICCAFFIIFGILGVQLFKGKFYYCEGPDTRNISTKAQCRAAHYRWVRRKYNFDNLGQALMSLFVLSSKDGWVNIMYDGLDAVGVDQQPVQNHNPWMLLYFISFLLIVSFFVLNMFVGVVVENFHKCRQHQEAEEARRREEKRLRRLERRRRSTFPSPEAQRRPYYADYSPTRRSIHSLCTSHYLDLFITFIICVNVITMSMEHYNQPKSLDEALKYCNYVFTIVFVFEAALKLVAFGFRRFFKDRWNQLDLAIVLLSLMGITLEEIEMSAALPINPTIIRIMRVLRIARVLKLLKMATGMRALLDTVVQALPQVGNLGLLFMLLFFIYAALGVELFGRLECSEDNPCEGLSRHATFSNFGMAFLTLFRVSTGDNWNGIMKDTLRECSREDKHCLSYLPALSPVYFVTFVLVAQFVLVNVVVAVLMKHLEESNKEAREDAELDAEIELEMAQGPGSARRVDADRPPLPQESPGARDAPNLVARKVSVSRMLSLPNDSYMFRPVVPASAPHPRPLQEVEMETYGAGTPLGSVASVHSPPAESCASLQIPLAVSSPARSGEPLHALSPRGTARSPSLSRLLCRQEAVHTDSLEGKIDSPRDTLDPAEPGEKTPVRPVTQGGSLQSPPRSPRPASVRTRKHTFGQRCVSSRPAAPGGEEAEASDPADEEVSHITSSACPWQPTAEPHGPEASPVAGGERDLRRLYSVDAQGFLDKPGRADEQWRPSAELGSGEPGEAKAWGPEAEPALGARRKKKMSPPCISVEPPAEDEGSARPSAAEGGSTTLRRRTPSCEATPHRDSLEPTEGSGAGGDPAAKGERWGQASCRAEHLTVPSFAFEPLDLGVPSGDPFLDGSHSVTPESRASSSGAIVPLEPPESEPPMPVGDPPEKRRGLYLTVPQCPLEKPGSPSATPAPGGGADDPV

[3] = molecular target: Peroxisome proliferator-activated receptor gamma/Nuclear receptor coactivator 2 (Homo sapiens, UniProt P37231); format: functional;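 also: agonist potency for raising coactivator recruitment to the receptor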
[4] = molecular target: Peroxisome proliferator-activated receptor gamma/Nuclear receptor coactivator 1 (Homo sapiens, UniProt P37231); format: functional;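 also: agonist potency as compounds enhance coactivator SRC-1 recruitment to PPARgamma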
[5] = molecular target: Peroxisome proliferator-activated receptor gamma/Nuclear receptor coactivator 3 (Homo sapiens, UniProt P37231); format: functional;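 also: agonist potency for raising coactivator recruitment to the receptor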
[6] = toxicity toward HepG2 liver cells – cell-based, plate reader, cherry-pick, antagonist series, cytotoxicity control, dose response (AID 743416); format: functional
[7] = blockers of bursicon-stimulated LGR2 cAMP reporter – cell-based, HEK293, CRE-luciferase reporter, cherry pick, set 2, dose response (AID 743343); format: functional;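 also: transfected cells were stimulated with diluted bursicon conditioned medium after compound addition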
[8] = blockade of melanocortin 4 receptor signaling – cell-based, plate reader, cherry pick, counter-screen for LGR2 antagonist project, dose response (AID 743444); format: functional;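 also: transfected HEK 293 cells stimulated with alpha-MSH peptide; potency of inhibitors of the alpha-MSH evoked signal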
[9] = molecular target: T1, Methionyl-tRNA synthetase, putative (Trypanosoma brucei brucei, UniProt Q38C91); format: functional, Trypanosoma brucei brucei strain 927/4 GUTat10.1;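 also: Read-out by fluorescence polarization, run as a confirmatory high-throughput counterscreen; potency of MetRS inhibitors measured by reduced AMP formation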
T1 sequence (Q38C91 whole entry): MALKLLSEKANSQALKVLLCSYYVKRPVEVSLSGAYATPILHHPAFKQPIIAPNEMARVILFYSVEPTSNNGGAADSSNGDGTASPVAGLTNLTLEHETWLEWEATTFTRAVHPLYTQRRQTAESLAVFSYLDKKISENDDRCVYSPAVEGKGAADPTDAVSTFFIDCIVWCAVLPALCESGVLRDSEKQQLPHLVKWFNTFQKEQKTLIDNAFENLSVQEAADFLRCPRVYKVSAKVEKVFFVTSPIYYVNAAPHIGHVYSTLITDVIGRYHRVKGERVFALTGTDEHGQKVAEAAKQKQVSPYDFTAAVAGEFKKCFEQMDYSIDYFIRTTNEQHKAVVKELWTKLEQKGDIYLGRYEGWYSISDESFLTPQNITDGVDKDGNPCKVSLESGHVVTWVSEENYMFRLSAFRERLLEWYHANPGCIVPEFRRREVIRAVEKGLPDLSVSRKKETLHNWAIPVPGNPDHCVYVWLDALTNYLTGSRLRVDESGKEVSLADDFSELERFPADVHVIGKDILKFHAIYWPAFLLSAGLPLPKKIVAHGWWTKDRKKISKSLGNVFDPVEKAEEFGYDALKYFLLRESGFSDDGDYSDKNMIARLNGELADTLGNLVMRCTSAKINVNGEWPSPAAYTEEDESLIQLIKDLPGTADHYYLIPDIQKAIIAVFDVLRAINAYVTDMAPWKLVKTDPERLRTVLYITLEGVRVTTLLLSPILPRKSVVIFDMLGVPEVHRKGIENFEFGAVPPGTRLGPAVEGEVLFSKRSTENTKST

[10] = Counterscreen for inhibitors of Trypanosoma brucei methionyl tRNA synthetase (MetRS): Luminescence-based cell-based high throughput dose response assay to identify compounds that are cytotoxic to Jurkat human T lymphocyte cells.; format: functional
[11] = molecular target: Beta-galactosidase (Escherichia coli, UniProt Q8VNN2); assay: Dose response counterscreen for EBI2 assay utilizing the enzyme, b-galactosidase.; format: functional
Chain of Beta-galactosidase (Q8VNN2 whole entry): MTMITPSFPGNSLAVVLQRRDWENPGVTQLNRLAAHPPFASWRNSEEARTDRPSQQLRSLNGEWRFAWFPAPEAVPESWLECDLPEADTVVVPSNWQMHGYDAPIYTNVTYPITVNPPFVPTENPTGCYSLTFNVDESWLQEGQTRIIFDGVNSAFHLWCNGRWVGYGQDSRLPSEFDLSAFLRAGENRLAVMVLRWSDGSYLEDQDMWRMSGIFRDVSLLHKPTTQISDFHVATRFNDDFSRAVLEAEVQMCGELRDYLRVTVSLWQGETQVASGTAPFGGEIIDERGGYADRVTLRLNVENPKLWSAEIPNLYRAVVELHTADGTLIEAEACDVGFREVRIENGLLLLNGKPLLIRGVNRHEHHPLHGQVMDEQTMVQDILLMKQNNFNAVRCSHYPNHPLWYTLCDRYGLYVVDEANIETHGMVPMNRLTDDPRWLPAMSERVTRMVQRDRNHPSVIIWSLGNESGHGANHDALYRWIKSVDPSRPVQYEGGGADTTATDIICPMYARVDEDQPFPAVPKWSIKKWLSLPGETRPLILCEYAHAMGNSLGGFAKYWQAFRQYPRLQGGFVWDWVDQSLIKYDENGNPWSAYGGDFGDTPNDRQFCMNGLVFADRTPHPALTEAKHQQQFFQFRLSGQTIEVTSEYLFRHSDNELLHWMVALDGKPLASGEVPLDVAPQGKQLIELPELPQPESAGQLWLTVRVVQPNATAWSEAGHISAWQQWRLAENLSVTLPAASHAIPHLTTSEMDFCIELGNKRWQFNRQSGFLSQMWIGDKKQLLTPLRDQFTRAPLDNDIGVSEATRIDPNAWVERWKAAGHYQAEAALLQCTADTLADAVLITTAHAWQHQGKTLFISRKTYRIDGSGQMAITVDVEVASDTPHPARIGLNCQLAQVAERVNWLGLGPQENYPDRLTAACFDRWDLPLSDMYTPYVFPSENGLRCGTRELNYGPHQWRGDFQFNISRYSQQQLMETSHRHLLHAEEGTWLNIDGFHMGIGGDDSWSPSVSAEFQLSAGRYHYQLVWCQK

[12] = molecular target: T2, Ubiquitin-conjugating enzyme E2 N (Homo sapiens, UniProt P61088); format: functional;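 also: Dose-response confirmation in a TR-FRET assay detecting UBC13-driven polyubiquitin chain formation, inhibition measured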
T2 sequence (P61088 whole entry): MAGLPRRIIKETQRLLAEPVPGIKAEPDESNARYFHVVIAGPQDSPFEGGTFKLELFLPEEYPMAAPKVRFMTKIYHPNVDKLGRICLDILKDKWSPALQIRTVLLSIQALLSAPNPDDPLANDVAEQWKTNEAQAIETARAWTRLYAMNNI

[13] = molecular target: T3, DNA repair and recombination protein RAD54-like (Homo sapiens, UniProt Q92698); assay: RAD54 Holliday junction migration blockers – biochemical, fluorescence, cherry-picked samples, dose series, confirmation (AID 651657); format: functional
T3 sequence (Q92698 whole entry): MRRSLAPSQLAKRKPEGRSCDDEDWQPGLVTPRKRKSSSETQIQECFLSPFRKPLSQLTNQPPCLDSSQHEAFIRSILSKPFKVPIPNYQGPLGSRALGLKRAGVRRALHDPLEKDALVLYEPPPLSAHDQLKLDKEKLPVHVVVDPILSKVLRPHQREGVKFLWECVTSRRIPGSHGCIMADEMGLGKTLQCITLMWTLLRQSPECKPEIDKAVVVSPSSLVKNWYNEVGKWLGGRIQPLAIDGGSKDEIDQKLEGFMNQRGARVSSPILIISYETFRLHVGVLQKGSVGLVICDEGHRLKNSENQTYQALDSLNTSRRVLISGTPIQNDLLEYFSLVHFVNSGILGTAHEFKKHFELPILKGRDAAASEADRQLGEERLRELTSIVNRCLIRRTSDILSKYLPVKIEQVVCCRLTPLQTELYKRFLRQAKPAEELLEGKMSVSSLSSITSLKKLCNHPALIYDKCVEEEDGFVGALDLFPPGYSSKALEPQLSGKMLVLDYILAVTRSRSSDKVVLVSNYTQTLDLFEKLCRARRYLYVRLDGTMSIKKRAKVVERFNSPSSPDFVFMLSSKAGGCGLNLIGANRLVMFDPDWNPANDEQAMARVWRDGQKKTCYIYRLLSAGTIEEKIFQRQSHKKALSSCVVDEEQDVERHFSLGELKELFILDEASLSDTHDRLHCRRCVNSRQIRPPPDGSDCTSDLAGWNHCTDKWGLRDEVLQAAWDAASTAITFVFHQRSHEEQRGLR

[14] = molecular target: T4, DNA repair protein RAD52 homolog (Homo sapiens, UniProt P43351); format: functional, biochemical
T4 sequence (P43351 whole entry): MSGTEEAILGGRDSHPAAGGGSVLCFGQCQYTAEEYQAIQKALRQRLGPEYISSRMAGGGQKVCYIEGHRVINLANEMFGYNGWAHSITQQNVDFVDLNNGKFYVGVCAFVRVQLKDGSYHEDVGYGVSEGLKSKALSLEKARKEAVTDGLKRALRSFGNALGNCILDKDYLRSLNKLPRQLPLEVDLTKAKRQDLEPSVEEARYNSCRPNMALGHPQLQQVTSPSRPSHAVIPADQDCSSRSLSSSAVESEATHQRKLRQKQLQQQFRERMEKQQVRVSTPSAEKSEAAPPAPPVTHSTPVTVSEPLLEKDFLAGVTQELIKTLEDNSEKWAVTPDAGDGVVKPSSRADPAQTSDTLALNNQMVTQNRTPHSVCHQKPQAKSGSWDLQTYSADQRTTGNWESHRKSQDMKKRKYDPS

[15] = molecular target: Cytochrome P450 3A4 (Homo sapiens, UniProt P08684);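 also: CYP3A4 tested as one member of a cytochrome P450 panel screen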
Chain of Cytochrome P450 3A4 (P08684 whole entry): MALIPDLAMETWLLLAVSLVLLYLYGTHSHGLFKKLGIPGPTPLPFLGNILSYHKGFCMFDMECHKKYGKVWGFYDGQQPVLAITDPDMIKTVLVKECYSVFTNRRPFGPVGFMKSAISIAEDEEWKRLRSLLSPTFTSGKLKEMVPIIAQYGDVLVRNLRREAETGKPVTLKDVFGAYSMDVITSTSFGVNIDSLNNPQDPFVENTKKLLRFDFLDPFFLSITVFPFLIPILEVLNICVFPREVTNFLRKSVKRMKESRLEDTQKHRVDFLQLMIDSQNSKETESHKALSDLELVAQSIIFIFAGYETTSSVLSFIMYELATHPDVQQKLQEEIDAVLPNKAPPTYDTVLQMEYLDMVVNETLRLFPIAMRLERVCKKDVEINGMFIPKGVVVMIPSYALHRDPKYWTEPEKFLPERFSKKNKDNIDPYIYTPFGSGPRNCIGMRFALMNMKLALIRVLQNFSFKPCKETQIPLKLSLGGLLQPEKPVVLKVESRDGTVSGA

[16] = molecular target: T5, Estrogen receptor (Homo sapiens, UniProt P03372);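 also: potency for inhibiting coactivator peptide recruitment to the receptor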
T5 sequence (P03372 whole entry): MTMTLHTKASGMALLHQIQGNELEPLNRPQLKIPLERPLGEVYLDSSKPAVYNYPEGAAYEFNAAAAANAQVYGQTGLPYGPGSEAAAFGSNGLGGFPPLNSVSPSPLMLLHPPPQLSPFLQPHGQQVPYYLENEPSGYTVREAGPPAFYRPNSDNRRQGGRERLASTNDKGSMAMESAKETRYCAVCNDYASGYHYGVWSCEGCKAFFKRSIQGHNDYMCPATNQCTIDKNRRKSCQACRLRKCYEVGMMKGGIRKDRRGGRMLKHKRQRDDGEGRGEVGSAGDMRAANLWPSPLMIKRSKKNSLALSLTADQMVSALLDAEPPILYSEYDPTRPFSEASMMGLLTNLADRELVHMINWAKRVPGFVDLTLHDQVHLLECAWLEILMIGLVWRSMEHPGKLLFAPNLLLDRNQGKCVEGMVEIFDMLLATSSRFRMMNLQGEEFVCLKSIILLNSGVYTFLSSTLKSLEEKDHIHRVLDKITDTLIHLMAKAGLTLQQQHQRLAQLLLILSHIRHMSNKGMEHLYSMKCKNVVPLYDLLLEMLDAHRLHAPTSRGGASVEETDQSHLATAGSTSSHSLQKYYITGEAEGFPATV

[17] = molecular target: T6, Estrogen receptor beta (Homo sapiens, UniProt Q92731);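 also: recombinant ER-beta bound to coactivator SRC1 peptide in presence of estradiol agonist; inhibitors block coactivator peptide binding and lower the FRET signal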
T6 sequence (Q92731 whole entry): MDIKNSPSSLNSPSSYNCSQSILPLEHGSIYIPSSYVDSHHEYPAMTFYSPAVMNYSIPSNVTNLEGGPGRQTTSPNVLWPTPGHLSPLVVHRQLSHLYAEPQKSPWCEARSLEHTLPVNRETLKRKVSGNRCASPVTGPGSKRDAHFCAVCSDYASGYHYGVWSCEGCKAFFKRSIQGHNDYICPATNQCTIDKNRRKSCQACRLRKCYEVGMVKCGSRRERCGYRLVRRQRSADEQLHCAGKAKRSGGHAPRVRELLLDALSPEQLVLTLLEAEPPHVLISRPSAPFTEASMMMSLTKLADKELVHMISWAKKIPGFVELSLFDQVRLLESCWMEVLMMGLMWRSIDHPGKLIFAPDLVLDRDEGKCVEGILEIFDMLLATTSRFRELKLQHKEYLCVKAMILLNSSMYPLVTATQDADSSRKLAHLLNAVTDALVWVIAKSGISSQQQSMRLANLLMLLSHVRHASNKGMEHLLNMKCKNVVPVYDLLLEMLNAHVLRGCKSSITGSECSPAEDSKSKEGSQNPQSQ

[18] = molecular target: T6, Estrogen receptor beta; assay: blockers of SRC-3 recruitment to ERβ – biochemical, ELISA, streptavidin-HRP readout, orthogonal assay, confirmation (AID 1060)
[19] = molecular target: Cytochrome P450 2C9 (Homo sapiens, UniProt P11712)
Chain of Cytochrome P450 2C9 (P11712 whole entry): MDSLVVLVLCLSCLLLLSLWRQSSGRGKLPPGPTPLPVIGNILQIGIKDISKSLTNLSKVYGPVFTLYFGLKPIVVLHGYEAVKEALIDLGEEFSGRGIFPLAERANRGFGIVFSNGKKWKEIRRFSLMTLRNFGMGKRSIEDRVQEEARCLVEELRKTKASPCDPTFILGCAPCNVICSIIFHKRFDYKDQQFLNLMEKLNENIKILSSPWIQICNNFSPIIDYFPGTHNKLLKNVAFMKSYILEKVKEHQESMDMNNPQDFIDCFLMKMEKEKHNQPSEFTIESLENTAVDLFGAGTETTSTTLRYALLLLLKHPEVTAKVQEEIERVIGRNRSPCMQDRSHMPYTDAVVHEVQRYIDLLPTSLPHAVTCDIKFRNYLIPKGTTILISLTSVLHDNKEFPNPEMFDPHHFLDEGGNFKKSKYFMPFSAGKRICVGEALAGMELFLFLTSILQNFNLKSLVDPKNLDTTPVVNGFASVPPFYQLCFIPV

[20] = molecular target: DNA dC->dU-editing enzyme APOBEC-3A (Homo sapiens, UniProt P31941); assay: Dose Response confirmation of small molecule APOBEC3A DNA Deaminase Inhibitors via a fluorescence-based single-stranded DNA deaminase assay. [Related pubchem assays (depositor defined):AID493011, AID493024]; format: functional
Chain of DNA dC->dU-editing enzyme APOBEC-3A (P31941 whole entry): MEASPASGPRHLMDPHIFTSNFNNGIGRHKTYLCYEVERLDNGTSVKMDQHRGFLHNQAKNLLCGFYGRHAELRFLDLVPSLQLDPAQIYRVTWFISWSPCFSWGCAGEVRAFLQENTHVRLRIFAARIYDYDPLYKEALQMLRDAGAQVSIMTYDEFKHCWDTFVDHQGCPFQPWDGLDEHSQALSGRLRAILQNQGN

[21] = molecular target: DNA dC->dU-editing enzyme APOBEC-3G (Homo sapiens, UniProt Q9HC16); format: functional;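 also: Dose-response counterscreen measuring inhibition of APOBEC3G DNA deaminase activity, run while confirming APOBEC3A inhibitors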
[22] = NIH-3T3 fibroblast cytotoxicity, dose response, cytotoxicity control, cell-based, fluorescence, Alamar Blue, secondary assay (AID 2327); format: functional;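 also: NIH-3T3 mouse fibroblasts cultured with fluconazole at 8 µg/mL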
[23] = fluconazole-exposed Candida albicans growth modulators – fluorescence, retest, confirmation (AID 2467); format: functional, cell-based
[24] = intracellular Trypanosoma cruzi inhibitors in host cells – cell-based, plate reader, cherry-pick samples, set 3, dose response (AID 651818); format: functional;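 also: compounds incubated with infected cells for about four days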

SMILES: CCOC(=O)CN1C(=O)C(Sc2n[nH]c(-c3ccccc3)n2)CCc2ccccc21 (centres undefined)
- IC50 [1]: > 100 µM (active)

SMILES: O=C(Nc1nc(-c2cccs2)cs1)c1cccc(S(=O)(=O)N2CCCCC2)c1
- EC50 [2]: 4.13 µM (active)

SMILES: CCOC(=O)c1sc(NC(=O)CSc2nnnn2-c2ccc(C)c(C)c2)nc1C
- EC50 [3]: 77.4 µM (not active)
- EC50 [4]: > 79.4 µM (not active)
- EC50 [5]: > 79.4 µM (not active)

SMILES: CC1CCCN(c2ncnc3c2cnn3-c2ccccc2)C1 (centres undefined)
- AC50 [6]: > 52 µM (inactive)
- AC50 [7]: 2.89 µM (active)
- AC50 [8]: 6.32 µM (active)

SMILES: CCN(CC)CCN(Cc1cc2cc3c(cc2[nH]c1=O)OCCO3)C(=O)NC1CCCCC1
- EC50 [3]: > 79.4 µM (not active)
- EC50 [4]: > 79.4 µM (not active)
- EC50 [5]: > 79.4 µM (not active)

SMILES: Cc1csc(CNc2ncnc3ccc(-c4ccccc4Cl)cc23)c1
- IC50 [9]: 97.8 µM (inactive)
- IC50 [10]: 83.3 µM (inactive)

SMILES: O=C(CCCOc1ccccc1)N1CCN(c2ccccc2)CC1
- EC50 [2]: 13.9 µM (active)

SMILES: Cc1[nH]c(-c2ccc(F)cc2)cc1C(=O)N1CCN(c2ccccc2F)CC1
- IC50 [11]: > 80 µM (inactive)

SMILES: CC(C)n1c(CCC(=O)O)ccc1-c1ccccc1
- IC50 [1]: > 100 µM (active)

SMILES: CCN(CC)S(=O)(=O)c1ccc(C(=O)NCCSc2c[nH]c3ccccc23)cc1
- EC50 [2]: 3.87 µM (active)

SMILES: Fc1ccccc1CSc1nc2ncc(Br)cc2[nH]1
- EC50 [3]: 24.2 µM (not active)
- EC50 [4]: 36.8 µM (not active)
- EC50 [5]: 49.5 µM (not active)
- IC50 [9]: 82.2 µM (inactive)

SMILES: CCCCN(CC)CCNC(=O)c1cc2c(=O)n(C)c3ccccc3c2n1C
- IC50 [12]: > 20 µM (inactive)
- AC50 [13]: 32.3 µM (active)

SMILES: N=c1c(C(=O)NCCN2CCOCC2)cc2c(=O)n3ccccc3nc2n1CCCN1CCOCC1
- AC50 [13]: 11.5 µM (active)
- AC50 [14]: 5.36 µM (active)

SMILES: O=C(COc1ccc(Br)cc1)N1CCC(c2ccccc2)C1 (centres undefined)
- IC50 [11]: > 80 µM (inactive)
- AC50 [15]: 28.2 µM (inconclusive)

SMILES: CCn1c(CSc2nc3ccccc3s2)nc2ccccc21
- EC50 [2]: 5.73 µM (active)

SMILES: Cc1ccc(C(C)C)c(OCCN(C)C)c1
- IC50 [1]: > 100 µM (active)

SMILES: O=C1NC(c2ccc(Br)cc2)Nc2sc3c(c21)CCC3 (centres undefined)
- IC50 [16]: 19.4 µM (active)
- IC50 [17]: > 50 µM (not active)
- IC50 [18]: < 0.023 µM (not active)
- AC50 [15]: 28.2 µM (inconclusive)
- AC50 [19]: 6.31 µM (inconclusive)

SMILES: Cc1ccc(C)c(SCC(=O)OCC(=O)c2ccco2)c1
- IC50 [16]: > 50 µM (not active)
- IC50 [17]: 6.74 µM (active)
- IC50 [18]: 0.0912 µM (not active)
- IC50 [20]: 18 µM (active)
- IC50 [21]: 46.3 µM (active)

SMILES: O=C1C=C(Nc2ccc(Cl)cc2)CC(c2ccc(Cl)cc2)C1 (centres undefined)
- IC50 [11]: > 80 µM (inactive)
- AC50 [15]: 20 µM (inconclusive)

SMILES: O=C(/C=C/c1ccc(F)cc1)N1CCN(c2ccccn2)CC1
- EC50 [22]: > 160 µM (inactive)
- EC50 [23]: 2.94 µM (active)
- IC50 [11]: > 80 µM (inactive)

SMILES: C[C@@H]1CN([C@@H](C)CO)C(=O)c2cccc(NC(=O)Nc3ccc(C(F)(F)F)cc3)c2O[C@H]1CN(C)S(=O)(=O)c1cccs1
- AC50 [24]: 4.64 µM (active)

SMILES: CCOC(=O)c1s/c(=N\C(=O)c2cccc(OC)c2)n(C)c1C
- EC50 [3]: 10.5 µM (not active)
- EC50 [4]: 11 µM (not active)
- EC50 [5]: 15.2 µM (not active)

SMILES: CC1=CCC(/C=N\Nc2n[nH]c3c4ccccc4nc-3n2)CC1 (centres undefined)
- IC50 [1]: > 100 µM (active)
